The target of data set [1] is α-glucosidase. The settings on record: cited from earlier work.
In data set [2] the target is α-glucosidase. The data set is described as follows: α-glucosidase inhibitory activity (p-NPG, absorbance at 405 nm). It counts as biochemical. The settings on record: 1 U/mL α-glucosidase, pH 6.8, 37 °C, p-NPG substrate; read-out: IC50 (semi-inhibitory concentration). How it is done:
Subsequently, 50 μL of 2 mmol/L p-NPG was added, and the mixture was incubated at 37 °C for 20 min. Finally, 50 μL of 1 mol/L Na2CO3 was added to an ice bath for 5 min to terminate the reaction. The absorbance was measured at 405 nm, and the α-glucosidase inhibitory activity was calculated according to Formula (1). All experiments were performed in triplicate.(1) Inhibition rate of enzyme activity/%=(1−Aa−Ab/Ac−Ad)×100%
Aa is the absorbance of the sample group, Ab is the absorbance of the sample background group (equal volume of buffer instead of enzyme solution), Ac is the absorbance of the control group (equal volume of buffer instead of the sample solution), and Ad is the absorbance of the control background group (equal volume of buffer instead of the sample and enzyme solution).

Data set [3] concerns α-glucosidase. The data set is described as follows: Inhibition kinetics assay (Lineweaver–Burk). The settings on record: for Inhibition type: Lineweaver–Burk plots; for Ki: inhibitory constant on α-glucosidase. It counts as biochemical. The procedure: The inhibition assay of α-glucosidase was adapted from MORTEZA, with some modification. A total of 50 μL of α-glucosidase solution (1 U/mL) was added to 96-well plates, and 50 μL of sample solution with different concentrations (sanggenone D: 0, 20, 100, 200 μg/mL; kuwanon G: 0, 10, 20, 40 μg/mL) was incubated at 37 °C for 10 min. Subsequently, different concentrations of pNPG solution were added and incubated at 37 °C for 20 min. Finally, sodium carbonate solution (50 μL, […]) was added to terminate the reaction. Colorimetry was performed at 405 nm using a spectrophotometer to determine the change in absorbance of the enzymatic reaction system. The reversible inhibitory effect types of sanggenone D and kuwanon G on the enzyme were analyzed by the Lineweaver–Burk equation. The relevant parameters were calculated using Formulas (2)–(4).
In the formula, V represents the reaction rate, and Vm represents the maximum reaction rate. [I] is the concentration of the compound sample, and [S] is the substrate concentration. Km represents the Michaelis constant, and KI and KIS represent the inhibitory constants of the compound sample on α-glucosidase and the α-glucosidase–substrate complex, respectively.

In data set [4] the test system is α-glucosidase. The data set is described as follows: Fluorescence quenching spectroscopy (Stern–Volmer). It counts as binding. The procedure:
A total of 100 μL of 1 U/mL α-glucosidase extract was mixed with […] of different concentrations (sanggenone D: 0, 1, 5, 10, 20, 50, 60 μg/mL; kuwanon G: 0, 1, 5, 10, 20, 40, 60 μg/mL) and incubated at three temperatures of 298 K, 304 K, and 310 K for 5 min. Then, the mixture were scanned with fluorescence spectroscopy (SpectraMax i3x, Molecular Devices, LLC., San Jose, CA, USA). The excitation wavelength was set at 280 nm, the emission wavelength was 300–500 nm, and the widths of both excitation and emission slits were 5 nm. The fluorescence quenching parameters were calculated according to the following equations.
Stern–Volmer dynamic collision quenching equation:(5) F0/F=1+KSVQ=1+Kqτ0Q (6) lgF0−F/F=lgKa+nlg[Q]
F0 and F represent the fluorescence intensity peaks of α-glucosidase without and with the compound, respectively; [Q] is the sample concentration; and τ0 is the protein’s average lifetime (10^−8 s).

In data set [5] the test system is HepG2 cells. The data set can be described thus: CCK-8 toxicity test of HepG2 cells. The settings on record: 24 h. Type of data set: cell-based, human. The procedure: DMEM complete medium was configured with 88% DMEM high glucose medium, 10% fetal bovine serum, 1% double antibodies, and 1% non-essential amino acids. HepG2 cells were seeded in the complete medium and incubated at 37 °C with 5% CO2. When the cell confluence grew to 80–90%, the passage was carried out at a ratio of 1:3. According to the method of Cao et al., a hyperglycemic model was established through insulin induction. HepG2 cells in the logarithmic growth stage were inoculated with 4 × 10^4 cells per well in a 96-well plate and cultured at 37 °C and 5% carbon dioxide for 24 h. After the cell coverage reached 80%, 100 µL of sanggenone D and kuwanon G with different concentrations were added for 24 h. Then, 100 µL CCK-8/complete culture solution (1:9) was added to each well, and the absorbance at 450 nm was measured by an enzymoleter after 1 h of culture. The toxicity test was conducted in triplicate.(8) Cell survival rate (%)=Asample/Acontrol×100%
(In general: Tetrazolium assays rely on reduction of a dye to a coloured formazan, in cell work by metabolically active cells.)

The test system of data set [6] is HepG2 cells. The data set is described as follows: Cellular glucose, TC and TG content in high-glucose model HepG2 cells. To be noted: 20, 80 μg/mL, 24 h, compared with the model group. Type of data set: cell-based, human. The procedure: DMEM complete medium was configured with 88% DMEM high glucose medium, 10% fetal bovine serum, 1% double antibodies, and 1% non-essential amino acids. HepG2 cells were seeded in the complete medium and incubated at 37 °C with 5% CO2. When the cell confluence grew to 80–90%, the passage was carried out at a ratio of 1:3. According to the method of Cao et al., a hyperglycemic model was established through insulin induction.
The sample concentration (sanggenone D: 20, 80 μg/mL; kuwanon G: 20, 80 μg/mL) used in this experiment was determined by a CCK8 experiment. HepG2 cells were inoculated with 2 × 10^5 in a 12-well plate and cultured for 24 h. After being attached to the well, the samples containing different concentrations were replaced and the cells were treated for 24 h. The relevant indexes were determined by the kit method according to the instructions of the manufacturer. Each measurement was performed in triplicate.

In data set [7] the test system is GLUT4. The data set can be described thus: Western blotting, GLUT4 expression in HepG2 cells. The settings on record: compared with the model group. It counts as cell-based, human. The procedure:
The tissue proteins were extracted with cold total protein extraction buffer (TPEB) [98% RIPA buffer (Solarbio, Beijing, China), 1% phosphatase inhibitor mix (Sangon Biotech, Shanghai, China), and 1% protease inhibitor mix (Cell Signaling Technology, Danvers, MA, USA)], and protein concentration was determined by the bicinchoninic acid assay (BCA) method. A total of 20 μg of protein samples were separated by SDS-PAGE and transferred to a polyvinylidene difluoride (PVDF) membrane. The membrane was washed with PBST for 5 min, then incubated with 5% skim milk at room temperature for 1 h. Subsequently, the membrane was cleaned with PBST five times for 5 min and incubated overnight at 4 °C with the primary antibodies [ACC (Zenbio #381131; 1:750 dilution), AMPK (Zenbio #380431; 1:500 dilution), p-AMPK (Zenbio #340763; 1:750 dilution), CPT-1 (proteintech #15184-1-AP 1:3000 dilution), and GLUT4 (Zenbio #347063; 1:1000 dilution)]. Finally, the membrane was incubated with the secondary antibody (Abmart #T40104, 1:3000 dilution) at room temperature for 1 h. Chemiluminescent visualization of the protein bands was achieved using an ECL system (Millipore, Burlington, MA, USA) and documented with Image Lab software for PC Version 6.1 (Bio-Rad, South Granville, NSW, Australia). Densitometric analysis of the resulting bands was conducted using ImageJ 2 software.

Data set [8] has as its system p-AMPK. The data set is described as follows: Western blotting, p-AMPK in HepG2 cells. It counts as cell-based, human. To be noted: compared with the model group. On the technique in general: In western blotting, separated proteins are transferred to a membrane and probed.
For data set [9], the system named is CPT-1. The data set is described as follows: Western blotting, CPT-1 expression in HepG2 cells. Type of data set: cell-based, human.

Entries after “also recorded” stand apart in the source; their conditions may differ.

In the case of `COc1cc(/C=C/C(=O)O)ccc1O` [ferulic acid], the “IC50 for α-glucosidase” value in data set [1] is 866 µg/mL.

Take `CC(C)=CCc1c(-c2ccc(O)cc2O)oc2c([C@H]3C=C(C)C[C@@H](c4ccc(O)cc4O)[C@@H]3C(=O)c3ccc(O)cc3O)c(O)cc(O)c2c1=O` [kuwanon G]: the IC50 in data set [2] is 38.3 µM. For the same molecule, in data set [3], the Inhibition type entry is “competitive inhibition type” and the Ki (usually the equilibrium dissociation constant of an inhibitor or competing ligand from its target) amounted to 83.5 µM. Further, in data set [4] (298 K), the KSV is listed as 5.41 ± 0.01 ×10^4 L/mol, the Ka is recorded as 36.85 ± 0.17 ×10^3 L/mol and the Kq is on record as 5.41 ± 0.01 ×10^12 L/mol. In addition, in [4] (304 K), the KSV was 4.91 ± 0.03 ×10^4 L/mol, the Ka is given as 194.98 ± 0.42 ×10^3 L/mol and the Kq was 4.91 ± 0.03 ×10^12 L/mol. Also, in data set [4] (310 K), the KSV is 3.35 ± 0.01 ×10^4 L/mol, the Ka was 1984.27 ± 0.33 ×10^3 L/mol and the Kq was 3.35 ± 0.01 ×10^12 L/mol. Moreover, the “Survival percentage of HepG2 cells” value in [5] (concentration less than 80 μg/mL) is given as “above 90%”. In addition, in data set [6], the “Glucose content in HepG2 cells” value was “significantly reduced”, the “TC content in HepG2 cells” value was “significantly reduced” and the “TG content in HepG2 cells” value is “significantly reduced”. Moreover, in data set [7], the GLUT4 expression entry is given as “notably up-regulated”. Also, in data set [8], the p-AMPK entry is given as “significantly promoted”. Besides, the “Expression of CPT-1” value in [9] was “significantly upregulated”.

As for `CC(C)=CCC12Oc3cc(O)ccc3C1(O)Oc1cc(O)c(C3C=C(C)CC(c4ccc(O)cc4O)C3C(=O)c3ccc(O)cc3O)c(O)c1C2=O` (centres unmarked) [sanggenone D], in [2], the IC50 stood at 45.1 µM. In addition, in data set [3], the Inhibition type result is “non-competition/anti-competition mixed inhibition; also recorded: mixed inhibition of noncompetitive and anticompetitive”; the Ki stood at 253 µM. For the same molecule, in data set [4] (298 K), the KSV is given as 3.90 ± 0.04 ×10^4 L/mol, the Ka is 7.28 ± 0.21 ×10^3 L/mol and the Kq is on record as 3.90 ± 0.04 ×10^12 L/mol. For the same molecule, in data set [4] (304 K), the KSV is listed as 3.24 ± 0.02 ×10^4 L/mol, the Ka is 16.73 ± 0.14 ×10^3 L/mol and the Kq is 3.24 ±0.02 ×10^12 L/mol. Also, in data set [4] (310 K), the KSV is 2.56 ± 0.02 ×10^4 L/mol, the Ka was 180.18 ± 0.30 ×10^3 L/mol and the Kq was 2.56 ±0.02 ×10^12 L/mol. Besides, the “Survival percentage of HepG2 cells” value in data set [5] (concentration less than 100 μg/mL) was “above 90%”. In data set [6], the “Glucose content in HepG2 cells” value is “significantly reduced”, the “TC content in HepG2 cells” value is recorded as “significantly reduced” and the “TG content in HepG2 cells” value is “significantly reduced”. The GLUT4 expression entry in [7] is given as “notably up-regulated”. Moreover, in data set [9], the “Expression of CPT-1” value is “significantly upregulated”.

The values above are taken from publication PMC12073159, “Inhibition Mechanism of Mulberry Prenylated Flavonoids Sanggenone D/Kuwanon G Against α-Glucosidase and the Regulation of Glucose via GLUT4 Pathway” (Nutrients, 2025).
